According to patent US10125134B2 (Mirati Therapeutics, Inc., priority 2016, dated 2018):
Like-named read-outs stand apart in the source and are kept apart here.

How the values were obtained:
[1] = system: NCI-H358 cells (express KRas G12C), Phospho-ERK; test: Cellular inhibition of KRas G12C: Phospho-ERK in NCI-H358 cells; format: cell-based; conditions: pERK(Thr202/Tyr204) normalized with GAPDH, NCI-H358 cells, 3 hours, read-out: IC50
Outline: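 IC50 derived by 4-parameter fit of GAPDH-normalized pERK(Thr202/Tyr204) signal, as percent of DMSO control. Signal came from in-cell immunodetection with infrared secondaries after 3 h compound exposure of KRas G12C NCI-H358 cells at 0.5% DMSO.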

[2] = biological target: KRas G12C (Homo sapiens, UniProt P01116, C118S/C51S/C80L/G12C); test: KRas G12C Modification Assay (LCMS detection of covalent adduct); format: binding; conditions: normalized percent of control; tested at 5 μM concentration for 3 hours
Outline: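 Cys-light KRas G12C mutant protein incubated with compound in K-Ras assay buffer, reactions quenched at set time points with 25 mM acetic acid and analysed by intact-protein LC/MS on a C-3 column. Deconvoluted mass heights expressed as percent of control (POC) relative to compound-free protein.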

POC [2] | Compound | IC50 ([1]; Homo sapiens, NCI-H358, 3 h) [nM] | IC50 ([1]; Homo sapiens) [nM] | IC50 [1] [nM]
C (“C”>50% POC) | C=CC(=O)N1CCN(c2nc(OCC(C)(C)N(C)C)nc3c2CCN(c2cccc4ccccc24)C3)CC1CC#N (centres unmarked) [Example 269, 2-(1-acryloyl-4-(2-(2-(dimethylamino)-2-methylpropoxy)-7-(naphthalen-1-yl)-5,6,7,8-tetrahydropyrido[3,4-d]pyrimidin-4-yl)piperazin-2-yl)acetonitrile] | 0.1 to 1000 | – | –
C (“C”>50% POC) | C=CC(=O)N1CCN(c2nc(OC[C@@H]3CCCN3C)nc3c2CCN(c2cccc4ncccc24)C3)CC1CC#N (stereo partly drawn) [Example 264, 2-[4-[2-[[(2S)-1-methylpyrrolidin-2-yl]methoxy]-7-(5-quinolyl)-6,8-dihydro-5H-pyrido[3,4-d]pyrimidin-4-yl]-1-prop-2-enoyl-piperazin-2-yl]acetonitrile] | > 1000 | – | –
A (“A”≤25% POC) | C=CC(=O)N1CCN(c2nc(OC(C)CN(C)C)nc3c2CCN(c2cccc4ccccc24)C3)CC1 (centres unmarked) [Example 24, 1-(4-(2-((1-(dimethylamino)propan-2-yl)oxy)-7-(naphthalen-1-yl)-5,6,7,8-tetrahydropyrido[3,4-d]pyrimidin-4-yl)piperazin-1-yl)prop-2-en-1-one] | > 1000 | – | –
C (“C”>50% POC) | C=CC(=O)N1CCN(c2nc(OCCN3CCCCC3)nc3c2CCN(c2cccc4cccc(Cl)c24)C3)C[C@@H]1CC#N [Example 362, 2-[(2S)-4-[7-(8-chloro-1-naphthyl)-2-[2-(1-piperidyl)ethoxy]-6,8-dihydro-5H-pyrido[3,4-d]pyrimidin-4-yl]-1-prop-2-enoyl-piperazin-2-yl]acetonitrile] | 0.1 to 1000 | – | –
C (“C”>50% POC) | C=CC(=O)N1CCN(c2nc(NC[C@@H]3CCCN3C)nc3c2CCN(c2cccc4ccccc24)C3)C[C@@H]1CC#N [Example 407, 2-((S)-1-acryloyl-4-(2-((((S)-1-methylpyrrolidin-2-yl)methyl)amino)-7-(naphthalen-1-yl)-5,6,7,8-tetrahydropyrido[3,4-d]pyrimidin-4-yl)piperazin-2-yl)acetonitrile] | > 1000 | – | –
C (“C”>50% POC) | C=CC(=O)N1CCN(c2nc(OCC(C)(C)N(C)C)nc3c2CCN(c2cccc4ccccc24)C3)CC1CC#N (centres unmarked) [Example 396, 2-(1-acryloyl-4-(2-(2-(dimethylamino)-2-methylpropoxy)-7-(naphthalen-1-yl)-5,6,7,8-tetrahydropyrido[3,4-d]pyrimidin-4-yl)piperazin-2-yl)acetonitrile] | – | – | 0.1 to 1000
C (“C”>50% POC) | C=CC(=O)N1CCN(c2nc(OC[C@@H]3CCCN3C)nc3c2CCN(c2cccc4c(F)cccc24)C3)CC1CC#N (stereo partly drawn) [Example 254, 2-[4-[7-(5-fluoro-1-naphthyl)-2-[[(2S)-1-methylpyrrolidin-2-yl]methoxy]-6,8-dihydro-5H-pyrido[3,4-d]pyrimidin-4-yl]-1-prop-2-enoyl-piperazin-2-yl]acetonitrile] | 0.1 to 1000 | – | –
C (“C”>50% POC) | C=CC(=O)N1CCN(c2nc(OC[C@H]3CCCCN3C)nc3c2CCN(c2cccc4ccccc24)C3)C[C@@H]1CC#N [Example 431, 2-((S)-1-acryloyl-4-(2-(((R)-1-methylpiperidin-2-yl)methoxy)-7-(naphthalen-1-yl)-5,6,7,8-tetrahydropyrido[3,4-d]pyrimidin-4-yl)piperazin-2-yl)acetonitrile] | 0.1 to 1000 | – | –
C (“C”>50% POC) | C=CC(=O)N1CCN(c2nc(OC[C@@H]3CCCN3C)nc3c2CCN(c2ccccc2C(F)(F)F)C3)C[C@@H]1CC#N [Example 379, 2-((S)-1-acryloyl-4-(2-(((S)-1-methylpyrrolidin-2-yl)methoxy)-7-(2-(trifluoromethyl)phenyl)-5,6,7,8-tetrahydropyrido[3,4-d]pyrimidin-4-yl)piperazin-2-yl)acetonitrile] | – | – | 0.1 to 1000
C (“C”>50% POC) | C=CC(=O)N1CCN(c2nc(OC[C@H]3CCCN3CCO)nc3c2CCN(c2cccc4ccccc24)C3)CC1CC#N (stereo partly drawn) [Example 304, 2-[4-[2-[[(2R)-1-(2-hydroxyethyl)pyrrolidin-2-yl]methoxy]-7-(1-naphthyl)-6,8-dihydro-5H-pyrido[3,4-d]pyrimidin-4-yl]-1-prop-2-enoyl-piperazin-2-yl]acetonitrile] | 0.1 to 1000 | – | –

Continued, compound first:

Compound | POC [2] | IC50 ([1]; Homo sapiens, NCI-H358, 3 h) [nM] | IC50 ([1]; Homo sapiens) [nM] | IC50 [1] [nM]
C=CC(=O)N1CCN(c2nc(OCCCN3CCOCC3)nc3c2CCN(c2cc(O)cc4ccccc24)C3)CC1 [Example 74, 1-(4-(7-(3-hydroxynaphthalen-1-yl)-2-(3-morpholinopropoxy)-5,6,7,8-tetrahydropyrido[3,4-d]pyrimidin-4-yl)piperazin-1-yl)prop-2-en-1-one] | C (“C”>50% POC) | 0.1 to 1000 | – | –
C=CC(=O)N1CCN(c2nc(OCCN(C)C)nc3c2CCN(c2cc(O)cc4ccccc24)C3)CC1CC#N (centres unmarked) [Example 170, 2-(1-acryloyl-4-(2-(2-(dimethylamino)ethoxy)-7-(3-hydroxynaphthalen-1-yl)-5,6,7,8-tetrahydropyrido[3,4-d]pyrimidin-4-yl)piperazin-2-yl)acetonitrile] | C (“C”>50% POC) | – | 0.1 to 1000 | –
C=CC(=O)N1CCN(c2nc(OC[C@@H]3C[C@@H](O)CN3C)nc3c2CCN(c2cccc(Cl)c2C(F)(F)F)C3)C[C@@H]1CC#N [Example 425, 2-((S)-1-acryloyl-4-(7-(3-chloro-2-(trifluoromethyl)phenyl)-2-(((2S,4R)-4-hydroxy-1-methylpyrrolidin-2-yl)methoxy)-5,6,7,8-tetrahydropyrido[3,4-d]pyrimidin-4-yl)piperazin-2-yl)acetonitrile] | C (“C”>50% POC) | 0.1 to 1000 | – | –
CN(C)C/C=C/C(=O)N1CCN(c2nc(OC[C@@H]3CCCN3C)nc3c2CCN(c2cc(O)cc4ccccc24)C3)CC1 [Example 199, (S,E)-4-(dimethylamino)-1-(4-(7-(3-hydroxynaphthalen-1-yl)-2-((1-methylpyrrolidin-2-yl)methoxy)-5,6,7,8-tetrahydropyrido[3,4-d]pyrimidin-4-yl)piperazin-1-yl)but-2-en-1-one] | C (“C”>50% POC) | > 1000 | – | –
C=CC(=O)N1CCN(c2nc(OCCCN3CCOCC3)nc3c2CCN(c2cc(O)cc4cccnc24)C3)CC1 [Example 205, 1-(4-(7-(6-hydroxyquinolin-8-yl)-2-(3-morpholinopropoxy)-5,6,7,8-tetrahydropyrido[3,4-d]pyrimidin-4-yl)piperazin-1-yl)prop-2-en-1-one] | C (“C”>50% POC) | – | > 1000 | –
C=CC(=O)N1CCN(c2nc(OCCN(C)CCO)nc3c2CCN(c2cc(O)cc4ccccc24)C3)CC1 [Example 83, 1-(4-(2-(2-((2-hydroxyethyl)(methyl)amino)ethoxy)-7-(3-hydroxynaphthalen-1-yl)-5,6,7,8-tetrahydropyrido[3,4-d]pyrimidin-4-yl)piperazin-1-yl)prop-2-en-1-one] | C (“C”>50% POC) | > 1000 | – | –
C=CC(=O)N1CCN(c2nc(OCC3CCCN(C)C3)nc3c2CCN(c2cc(O)cc4ccccc24)C3)CC1 (centres unmarked) [Example 72, 1-(4-(7-(3-hydroxynaphthalen-1-yl)-2-((1-methylpiperidin-3-yl)methoxy)-5,6,7,8-tetrahydropyrido[3,4-d]pyrimidin-4-yl)piperazin-1-yl)prop-2-en-1-one] | C (“C”>50% POC) | 0.1 to 1000 | – | –
C=CC(=O)N1CCN(c2nc(OC[C@@H]3CCCN3C)nc3c2CCN(c2cccc4ccc(C)cc24)C3)CC1CC#N (stereo partly drawn) [Example 245, 2-[4-[7-(7-methyl-1-naphthyl)-2-[[(2S)-1-methylpyrrolidin-2-yl]methoxy]-6,8-dihydro-5H-pyrido[3,4-d]pyrimidin-4-yl]-1-prop-2-enoyl-piperazin-2-yl]acetonitrile] | C (“C”>50% POC) | – | 0.1 to 1000 | –
CN(C)C/C=C/C(=O)N1CCN(c2nc(OC[C@@H]3C[C@@H](O)CN3C)nc3c2CCN(c2cccc(F)c2C(F)(F)F)C3)C[C@@H]1CC#N [Example 342, 2-[(2S)-1-[(E)-4-(dimethylamino)but-2-enoyl]-4-[7-[3-fluoro-2-(trifluoromethyl)phenyl]-2-[[(2S,4R)-4-hydroxy-1-methyl-pyrrolidin-2-yl]methoxy]-6,8-dihydro-5H-pyrido[3,4-d]pyrimidin-4-yl]piperazin-2-yl]acetonitrile] | C (“C”>50% POC) | – | 0.1 to 1000 | –
C=CC(=O)N1CCN(c2nc(OCCN3CCCC3)nc3c2CCN(c2cc(O)cc4ccccc24)C3)CC1 [Example 85, 1-(4-(7-(3-hydroxynaphthalen-1-yl)-2-(2-(pyrrolidin-1-yl)ethoxy)-5,6,7,8-tetrahydropyrido[3,4-d]pyrimidin-4-yl)piperazin-1-yl)prop-2-en-1-one] | C (“C”>50% POC) | > 1000 | – | –
C=CC(=O)N1CCN(c2nc(OC[C@@H]3CCCN(C)C3)nc3c2CCN(c2cc(O)cc4ccccc24)C3)CC1 [Example 192, (R)-1-(4-(7-(3-hydroxynaphthalen-1-yl)-2-((1-methylpiperidin-3-yl)methoxy)-5,6,7,8-tetrahydropyrido[3,4-d]pyrimidin-4-yl)piperazin-1-yl)prop-2-en-1-one] | C (“C”>50% POC) | 0.1 to 1000 | – | –
C=CC(=O)N1CCN(c2nc(OC[C@H]3C[C@H](F)CN3C)nc3c2CCN(c2cccc(F)c2C(F)(F)F)C3)CC1CC#N (stereo partly drawn) [Example 416, 2-(1-acryloyl-4-(2-(((2R,4S)-4-fluoro-1-methylpyrrolidin-2-yl)methoxy)-7-(3-fluoro-2-(trifluoromethyl)phenyl)-5,6,7,8-tetrahydropyrido[3,4-d]pyrimidin-4-yl)piperazin-2-yl)acetonitrile] | C (“C”>50% POC) | 0.1 to 1000 | – | –
